Holding throughout (type): cell-based, human
One test relates to EWS-FLI1. The test can be described thus: Immunoblot of EWS-FLI1 protein abundance in cells. As to conditions: for SPOP-mediated decrease of ectopically expressed EWS-FLI1: HEK293T cells, 10 μM MG132 or 1 μM MLN4924 overnight (FIG. 1G). For orientation: Immunoblotting shows a protein as a band on a membrane.
In a further test the test system is EWS-FLI1 mRNA. The test is described as follows: RT-PCR of EWS-FLI1 mRNA levels. As to the method: Cells were isolated by dissociation with 0.05% Trypsin, followed by media quenching. The cells were spun down at 300×rcf for 5 minutes. The media was aspirated, the pellet was suspended with 1×PBS, and then the cells were spun down again. The PBS was aspirated. RNA extraction was performed with an RNA extraction kit (BioBasic BS584). The final elution step was done with 50 μL of RNAse-free water. The […] with the NanoDrop OneC (Thermo Fisher Scientific). Three biological replicates were performed for RNA extraction. Quartile analysis was done to exclude outliers and significance was determined by one-way ANOVA tests.

A further test deals with SPOP. The test can be described thus: Immunoblot of SPOP levels. As to conditions: D4476 treatment. Here is the method: (§1) Cells were lysed in EBC buffer (50 mM Tris pH 7.5, 120 mM NaCl, 0.5% NP-40) or Triton X-100 buffer (50 mM Tris pH 7.5, 150 mM NaCl, 1% Triton X-100) supplemented with protease inhibitors (Complete Mini, Roche) and phosphatase inhibitors (phosphatase inhibitor cocktail set I and II, Calbiochem). The protein concentrations of whole cell lysates were measured by NanoDrop OneC using the Bio-Rad protein assay reagent as described previously. Equal amounts of whole cell lysates were resolved by SDS-PAGE and immunoblotted with indicated antibodies. For immunoprecipitations analysis, unless specified, 1000 μg lysates were incubated with the indicated antibody (1-2 μg) for 3-4 hr at 4° C. followed by 1 hr incubation with 10 μL Protein A magnetic beads (New England Biolabs). Or 1000 μg lysates containing tagged molecules were incubated with agarose beads coupled antibodies for the specific tag for 3-4 hr at 4° C. For endogenous IPs, incubation of cell lysates with antibodies was extended to overnight. The recovered immuno-complexes were washed five times with NETN buffer (20 mM Tris, pH 8.0, 100 mM NaCl, 1 mM EDTA and 0.5% NP-40) before being resolved by SDS-PAGE and immunoblotted with indicated antibodies.

The subject of a further test is EWS-FLI1 binding to SPOP. The test can be described thus: EWS-FLI1 binding to SPOP in cells. Conditions: D4476 treatment. As to the method:
as §1

Each structure is given as a SMILES string. Where a SMILES comes first, the peptide text is derived from it. The star is where a group is joined. Cbz = O=C(OCc1ccccc1)*

Consider `Nc1cccc2c1CN(C1CCC(=O)NC1=O)C2=O` (centres unmarked) [lenalidomide], for which the EWS-FLI1 protein abundance result in the test on EWS-FLI1 (MHH-ES-1 cells, lenalidomide for 16 hrs (FIG. 2I)) is listed as “increased EWS-FLI1 protein abundance”. Further, the “EWS-FLI1 mRNA levels” value in the test with EWS-FLI1 mRNA (lenalidomide treatment) was “without affecting EWS-FLI1 mRNA levels”.
With `NC(=O)c1ccc(-c2nc(-c3ccc4c(c3)OCCO4)c(-c3ccccn3)[nH]2)cc1` [D4476], the EWS-FLI1 protein levels entry in the test on EWS-FLI1 (A673^3A KI cells, D4476 for 16 hrs (FIG. 2P)) is listed as “not observed”; with EWS-FLI1 (A673 parental cells, D4476 for 16 hrs (FIG. 2O)), “Increased EWS-FLI1 protein levels”. For the same compound, the EWS-FLI1 protein abundance result in the test with EWS-FLI1 (EWS502 cells (CUL3 E358Q), D4476 treatment) is “neither D4476 treatment, nor SPOP depletion increased EWS-FLI1 protein abundance”. The EWS-FLI1 protein accumulation result in the test with EWS-FLI1 (SK-N-MC, EWS894 and MHH-ES-1 cells, D4476 for 16 hrs (FIGS. 2B-2D)) is listed as “resulted in the accumulation of EWS-FLI1 in multiple Ewing sarcoma cells”. Further, in the test with EWS-FLI1 (endogenous SPOP-depleted A673 cells, D4476 for 16 hrs (FIG. 2H)), the “effect on EWS-FLI1 levels in SPOP-depleted cells” value is “attenuated”. Besides, the “EWS-FLI1 mRNA levels” value in the test with EWS-FLI1 mRNA (D4476 treatment) is listed as “without significantly affecting EWS-FLI1 mRNA levels”. The SPOP levels result with SPOP was “unaffected”. Moreover, the “EWS-FLI1 binding to SPOP” value with EWS-FLI1 binding to SPOP is listed as “reduced EWS-FLI1 binding to SPOP”.
With `CC(C)C[C@@H](C=O)NC(=O)[C@H](CC(C)C)NC(=O)[C@H](CC(C)C)NC(=O)OCc1ccccc1` [MG132] (Cbz-Leu-Leu-Leu-aldehyde), the “3A-EWS-FLI1 mutant protein response” value with EWS-FLI1 (3A-EWS-FLI1 (S464A/S465A/S466A), MG132 treatment) is “resistance to MG132 treatment”. In addition, the EWS-FLI1 protein abundance entry with EWS-FLI1 (A673 and SK-N-MC cells, 10 μM MG132 for 4 hrs) is given as “significantly increased EWS-FLI1 protein abundance”. Further, in the test with EWS-FLI1, the “SPOP-mediated decrease of ectopically expressed EWS-FLI1” value is on record as “blocked”. The “EWS-FLI1 protein levels following OTUD7A depletion” value in the test with EWS-FLI1 (tet-induced OTUD7A depletion, MG132 treatment) was “largely preserved EWS-FLI1 protein levels”.
As to `NS(=O)(=O)OC[C@@H]1C[C@@H](n2ccc3c(N[C@H]4CCc5ccccc54)ncnc32)C[C@@H]1O` [MLN4924], the EWS-FLI1 protein stabilization result in the test on EWS-FLI1 (A673 cells, 1 μM MLN4924 overnight) is on record as “largely stabilized EWS-FLI1”. The “SPOP-mediated decrease of ectopically expressed EWS-FLI1” value in the test with EWS-FLI1 was “blocked”.
For the compound `Cc1sc2c(c1C)C(c1ccc(Cl)cc1)=N[C@@H](CC(=O)OC(C)(C)C)c1nnc(C)n1-2` [JQ1], the EWS-FLI1 protein abundance entry in the test on EWS-FLI1 (MHH-ES-1 or A673 cells, JQ1 treatment) is reported as “didn't change EWS-FLI1 protein abundance”.
